Several values for one entry are separate records, joined by “and”; a condition that tells them apart may be missing. Equal values may be shown once. Read-outs that look alike come from different tables or passages of the source.
Columns and labels:
[1] = test system: influenza virus A/Sydney/5/97 (H3N2); assay type: in vivo; settings: for -log2 HA titer (mean ± SD): 9-day-old embryonated hen eggs, 100 EID50, 34 °C 48 h, allantoic fluid
[2] = test system: influenza viral matrix protein mRNA; assay type: cell-based, influenza virus
[3] = test system: influenza A/Sydney/5/97 (H3N2)
MDCK cells = assay: Cytotoxicity to MDCK cells (MTS-based assay); assay type: cell-based, canine; settings: 48 h, read-out: CC50 (50% cytotoxic concentration)
Procedure: (§1) An MTS-based assay was performed to evaluate the cytotoxic effects of the test compounds on MDCK cells. Approximately 5 × 10^4 cells/well were seeded in 96-well microplates in MEM with 10% FBS at 37 °C in a humidified 5% CO2 incubator. When the monolayer was confluent, the cells were washed twice with PBS and then treated with compounds diluted in serum-free MEM. After incubation at 37 °C for 48 h, 20 μL of MTS was added to each well, and the cells were incubated for 2 h. The absorbance at 490 nm was determined using a microplate reader. The cell viability was calculated using the following formula: cell viability (%) = (drug treatment – background)/(control – background) × 100%. The half-maximal cytotoxic concentration (CC50) of the compounds was defined as the concentration that reduced the A490 of compound-treated cells to 50% of that of untreated cells.

neuraminidase (NA) = neuraminidase (NA) (Influenza A virus, UniProt Q80DL0); settings: for IC50: read-out: NA inhibitory activity IC50
Procedure: The neuraminidase inhibition assay was used to evaluate the effects of each compound on the neuraminidase activity of the influenza virus, according to the instructions of the Neuraminidase Inhibitors Screen Kit (Beyotime, China). Inhibition = [(C− S) / (C − C 0)] × 100%, where C is the fluorescence of the control (enzyme, buffer, and substrate) after 30 min of incubation, and C 0 is the fluorescence of the control (buffer and substrate). S is the fluorescence of the tested samples (enzyme, sample solution, and substrate) after incubation. Standard curves were made by plotting the percentage of fluorescence inhibition relative to the activity of virus controls against the log2 of concentrations. In addition, 10 μg/mL oseltamivir phosphate was used as the positive control. Then, 10 μL of NA in 70 μL of reaction buffer was mixed with equal volumes of twofold dilutions of the compounds. After a 2-min incubation at 37 °C, equal volumes (10 μL) of the substrate solution [2-(4-methylumbelliferyl)-α-D-N-acetylneuraminic acid sodium (4-MU-NANA)] were added, and the mixtures were further incubated for 30 min at 37 °C. The fluorescence intensity was measured using a fluorescence plate reader at an excitation wavelength of 322 nm and an emission wavelength of 450 nm. The 50% inhibitory concentration (IC50) was calculated by regression analysis with r ^2 ≥ 0.9, representing the mean values of three independent experiments [13, 29].

[4] = Cytotoxicity to MDCK cells (MTS-based assay); assay type: cell-based, canine; settings: dog, read-out: CC50 (50% cytotoxic concentration)
Procedure: as §1

[5] = test system: influenza A/Sydney/5/97 (H3N2); assay: in vitro; settings: dog, MDCK cells
[6] = test system: influenza A/Sydney/5/97 (H3N2); assay: microbe, parasite or virus in culture; settings: H3N2, MDCK
hemagglutinin (HA) = assay: Hemagglutination inhibition assay (guinea pig RBC); settings: 4 HAU virus, 1.5% guinea pig RBC
Procedure: The hemagglutination inhibition assay was used to study whether the compound could block the SA-containing receptors. The phenanthrenes from B. striata and oseltamivir phosphate were all tested Fresh guinea pig blood was collected at the Laboratory Animal Research Center of the Zhejiang Chinese Medical University, supplemented with 1.6% sodium citrate in sterile water. Then, red blood cells (RBC) were separated by centrifugation (800×g for 10 min at room temperature), washed three times with sterile PBS, and then suspended at a concentration of 1.5%. The least number of virus particles able to agglutinate the guinea pig RBC was determined in a serial virus dilution as four hemagglutination units (HAU). PBS instead of the compounds was used as the hemagglutinating positive control and no-virus RBC as the hemagglutinating negative control. Then, 50 μL of the compounds in serial twofold dilutions in PBS were mixed with 50 μL of 4 HAU influenza virus suspension, incubated for 1 h at 37 °C, mixed with an equal volume of 1.5% guinea pig RBC suspension for 1 h at room temperature, and then monitored for agglutination [10, 11].

[7] = read-out: Simultaneous treatment IC50
[8] = Post-treatment SI (selective index; CC50mean/IC50mean), post-treatment
[9] = Simultaneous treatment SI (selective index; CC50mean/IC50mean), simultaneous treatment
[10] = 72 h, read-out: Simultaneous treatment IC50

| Molecule | Matrix protein mRNA transcription (normalized to GAPDH) [2] | IC50 ([3]; read-out: Post-treatment IC50) [µM] | IC50 [3, 7] [µM] | CC50 (MDCK cells) [µM] | Post-treatment IC50 [3] | Simultaneous treatment IC50 [3] | IC50 (neuraminidase (NA)) [µM] | Post-treatment SI (selective index; CC50mean/IC50mean) [3] | Simultaneous treatment SI (selective index; CC50mean/IC50mean) [3] | NA inhibitory activity IC50 (neuraminidase (NA)) | further results |
| --- | --- | --- | --- | --- | --- | --- | --- | --- | --- | --- | --- |
| 2,2′–dyhydroxyl-4,4′,7,7′-9′,10′-dihydro-1,6′-di-phenanthrene [Compound 11] | stronger inhibitory effect | 35.2 ± 3.7 | 38.6 ± 2.9 |  |  |  |  |  |  |  | Inhibition (%) ([1]; in vivo): 0.00% |
| COc1cc(O)cc2c1-c1ccc(O)cc1CC2 [Compound 1, 2,7-dyhydroxyl-4-methoxy-9,10-dihydro-phenanthrene] | stronger inhibitory effect |  |  | 201 ± 18.6 | - (The results showed that antiviral effects against A/Sydney/5/97(H3N2) were less than 50% inhibition) | - (The results showed that antiviral effects against A/Sydney/5/97(H3N2) were less than 50% inhibition) | 72.6 ± 6.5 |  |  |  |  |
| COc1ccc2c(ccc3c(-c4c(O)cc(OC)c5c4CCc4cc(O)ccc4-5)c(O)cc(OC)c32)c1 [Compound 2, 2,2,7′-trihydroxy-4,4′,7-trimethoxy-9′,10′-dihydro-1,1′-diphenanthrene] | stronger inhibitory effect | 31.4 ± 2.1 | 28.6 ± 4.3 | 67.9 ± 13.1 |  |  |  | 2.2 | 2.3 | - (key: -: Inhibitory effect on the NA was less than 50%.) |  |
| COc1ccc2c(ccc3c(-c4c(O)c(OC)cc5c4CCc4cc(O)cc(OC)c4-5)c(O)cc(OC)c32)c1 [Compound 3, 2,2′,7′-trihydroxy-3′,4,5′,7-tetramethoxy-9′,10′-dihydro-1,1′-di-phenanthrene] | stronger inhibitory effect | 22.6 ± 1.8 | 20.4 ± 3.2 | 50.3 ± 6.2 |  |  | 16.8 ± 1.6 | 2.2 | 2.5 |  |  |
| COc1cc(O)c2c(ccc3c(OC)c(O)ccc32)c1-c1c(OC)cc(O)c2c1ccc1c(OC)c(O)ccc12 [Compound 4, 4,4′,7,7′-tetrahydroxy-2,2′,8,8′-tetramethoxy-1,1′-di-phenanthrene] | most efficient, even more powerful than oseltamivir | 18.4 ± 3.1 | 14.6 ± 2.4 | 80 ± 20.1 |  |  | 21.7 ± 2.9 | 4.3 | 5.5 |  |  |
| COc1cc(O)c2c(ccc3cc(O)ccc32)c1-c1c(OC)cc(O)c2c1ccc1c(OC)cccc12 [Compound 5, 4,4′,7′-trihydroxy-2,2′,8,-trimethoxy-1,1′-di-phenanthrene] |  |  |  | 96.8 ± 15.6 | - (The results showed that antiviral effects against A/Sydney/5/97(H3N2) were less than 50% inhibition) | - (The results showed that antiviral effects against A/Sydney/5/97(H3N2) were less than 50% inhibition) |  |  |  | - (key: -: Inhibitory effect on the NA was less than 50%.) | Inhibition (%) ([1]; in vivo): 0.00% and 6.90% and 3.45% |
| COc1cc(O)c2c(ccc3cc(O)ccc32)c1-c1c(OC)cc(O)c2c1ccc1cc(O)ccc12 [Compound 6, 4,4′,7,7′-tetrahydroxy-2,2′-dimethoxy-1,1′-di-phenanthrene] | stronger inhibitory effect | 37.3 ± 3.2 | 33.8 ± 2.7 | 106 ± 21.2 |  |  | 16.1 ± 2.6 | 2.8 | 3.1 |  |  |
| COc1ccc2c(ccc3c(-c4c(OC)cc(O)c5c4ccc4cc(O)ccc45)c(OC)cc(O)c32)c1 [Compound 7, 4,4′,7-trihydroxy-2,2′,7′-trimethoxy-1,1′-di-phenanthrene] | stronger inhibitory effect | 31.2 ± 2.2 | 28.5 ± 2.8 | 130 ± 15.6 |  |  |  | 4.1 | 4.5 | - (key: -: Inhibitory effect on the NA was less than 50%.) | Inhibition (%) ([1]; in vivo): 0.00% |
| COc1cc(O)c2c(ccc3cc(O)ccc32)c1-c1c(OC)cc(O)c2c1ccc1c(OC)c(O)ccc12 [Compound 8, 4,4′,7,7′-tetrahydroxy-2,2′,8-trimethoxy-1,1′-di-phenanthrene] |  |  |  | 111 ± 17.3 | - (The results showed that antiviral effects against A/Sydney/5/97(H3N2) were less than 50% inhibition) | - (The results showed that antiviral effects against A/Sydney/5/97(H3N2) were less than 50% inhibition) |  |  |  | - (key: -: Inhibitory effect on the NA was less than 50%.) |  |
| COc1cc(O)c2c(c1)CCc1cccc(O)c1-2 [Compound 9, 4,5-dyhydroxyl-2-methoxy-9,10-dihydro-phenanthrene] | stronger inhibitory effect |  |  | 160 ± 20.4 | - (The results showed that antiviral effects against A/Sydney/5/97(H3N2) were less than 50% inhibition) | - (The results showed that antiviral effects against A/Sydney/5/97(H3N2) were less than 50% inhibition) |  |  |  | - (key: -: Inhibitory effect on the NA was less than 50%.) |  |
| COc1ccc2c(ccc3cc(O)cc(OC)c32)c1 [Compound 10, 2-hydroxyl-4,7-dimethoxyphenanthrene] | stronger inhibitory effect |  |  |  |  |  |  |  |  |  | -log2 HA titer (mean ± SD) ([1]; 0.04 mmol/egg): 6.00 ± 0.71; Inhibition (%) ([1]; 0.04 mmol/egg, embryonated hen eggs, 100 EID50, 48 h): 0.00%; -log2 HA titer (mean ± SD) ([1]; 0.08 mmol/egg): 3.20 ± 0.40; Inhibition (%) ([1]; 0.08 mmol/egg, embryonated hen eggs, 100 EID50, 48 h): 44.8% and 44.83%; CC50 at 48 h [4]: 142 ± 25 µM; selectivity ratio at 72 h [5, 8]: 3.4; selectivity ratio at 72 h [5, 9]: 3.3; IC50 [6, 10]: 43.3 ± 5.3 µM; IC50 ([6]; read-out: Post-treatment IC50): 42.3 ± 3.9 µM |
| COc1cc(O)cc2ccc3cc(O)ccc3c12 [Compound 12, 2,7-dyhydroxyl-4-methoxyphenanthrene] |  |  |  | 116 ± 16.8 | - (The results showed that antiviral effects against A/Sydney/5/97(H3N2) were less than 50% inhibition) | - (The results showed that antiviral effects against A/Sydney/5/97(H3N2) were less than 50% inhibition) |  |  |  | - (key: -: Inhibitory effect on the NA was less than 50%.) |  |
| CCOC(=O)C1=C[C@@H](OC(CC)CC)[C@H](NC(C)=O)[C@@H](N)C1 [Oseltamivir, reference compound] |  |  |  |  |  |  |  |  |  |  | -log2 HA titer (mean ± SD) ([1]; 0.01 mmol/egg): 0.00 ± 0.00; Inhibition (%) ([1]; 0.01 mmol/egg, embryonated hen eggs, 100 EID50, 48 h): 100.00%; CC50 at 48 h [4]: 599 ± 62.1 µM; selectivity ratio at 72 h [5, 8]: 665; selectivity ratio at 72 h [5, 9]: 122; IC50 [6, 10]: 4.9 ± 0.9 µM; IC50 ([6]; read-out: Post-treatment IC50): 0.9 ± 0.2 µM; Inhibition of hemagglutination by the influenza virus (hemagglutinin (HA)): could not inhibit hemagglutination |
